Source: patent US6355628B1, “Combination therapy using pentafluorobenzenesulfonamides” (priority 1999, dated 2002)

Experiments:
[1] = system: MX-1 human mammary tumor xenografts; assay: MX-1 human mammary tumor xenografts in athymic nude mice, tumor growth; type: in vivo
[2] = Weight loss and mortality in MX-1 xenograft study; type: in vivo, athymic nude mice; details: efficacious dose, administered alone
Description: Its activity is not affected by the multidrug resistance (MDR) phenotype.
Administration of suboptimal doses of 3 mg/kg cisplatin i.v. bolus or 15 mg/kg/hr compound 1 i.v. infusion for 4 hours was compared with the efficacy of coadministration against MX-1 tumors.

various tumor cell lines = assay: Growth and clonogenic potential of tumor cell lines in culture; type: cell-based
β-tubulin = assay: Tubulin polymerization / binding to β-tubulin; type: biochemical; details: by covalently binding to β-tubulin

| SMILES | inhibiting the growth of MX-1 xenografts, single agent ([1]; 30 mg/kg/hr infused i.v. for 4 hours) | body weight loss accompanying efficacy, single agent [2] | activity versus multidrug resistance (MDR) phenotype (various tumor cell lines) | growth and clonogenic potential of various tumor cell lines in culture (various tumor cell lines) | tubulin polymerization (β-tubulin) | efficacy against MX-1 tumor, single agent ([1]; efficacious dose, not stated) |
| --- | --- | --- | --- | --- | --- | --- |
| COc1ccc(NS(=O)(=O)c2c(F)c(F)c(F)c(F)c2F)cc1F.[Na] [Compound 1, 2-Fluoro-1-methoxy-4-(pentafluorophenylsulfonamido)benzene, sodium salt] | very effective | accompanied by body weight loss | not affected | inhibits the growth and clonogenic potential | prevents tubulin polymerization |  |
| N.N.[Cl][Pt][Cl] [Cisplatin, cis-diaminedichloroplatinum (II), reference compound] |  | accompanied by body weight loss |  |  |  | very efficacious |
